≈ marks a conversion by molar mass, not a printed value. Calls of active or inactive are those of the source. The rule behind the calls is not given here.
Assays:
[Candida] auris [1] = Antifungal activity against fluconazole resistant Candida auris 791 assessed as inhibition of fungal growth incubated for 48 hrs by CLSI protocol based microbroth dilution method; type: functional; conditions: Candidozyma auris
[Candida] auris [2] = Antifungal activity against fluconazole resistant Candida auris D12 assessed as inhibition of fungal growth incubated for 48 hrs by CLSI protocol based microbroth dilution method; type: functional; conditions: Candidozyma auris
[Candida] auris [3] = Antifungal activity against fluconazole resistant Candida auris BS12372 assessed as inhibition of fungal growth incubated for 48 hrs by CLSI protocol based microbroth dilution method; type: functional; conditions: Candidozyma auris
[4] = Hemolytic activity in rabbit RBC assessed as hemolysis at 4 ug/ml incubated for 1 hrs by absorbance based assay relative to control; type: toxicity, cell-based, Oryctolagus cuniculus, Erythrocyte; conditions: rabbit red blood cells, at 4 µg/mL, read-out: Activity
[Candida] auris [5] = Antifungal activity against fluconazole resistant Candida auris 789 assessed as inhibition of fungal growth incubated for 48 hrs by CLSI protocol based microbroth dilution method; type: functional; conditions: Candidozyma auris
[Candida] auris [6] = Antifungal activity against fluconazole resistant Candida auris 888 assessed as inhibition of fungal growth incubated for 48 hrs by CLSI protocol based microbroth dilution method; type: functional; conditions: Candidozyma auris
[Candida] auris [7] = Antifungal activity against fluconazole resistant Candida auris 887 assessed as inhibition of fungal growth incubated for 48 hrs by CLSI protocol based microbroth dilution method; type: functional; conditions: Candidozyma auris
Cryptococcus neoformans [8] = assay: Antifungal activity against Cryptococcus neoformans H99 assessed as inhibition of fungal growth incubated for 72 hrs by CLSI protocol based microbroth dilution method; type: functional
Aspergillus fumigatus = assay: Antifungal activity against Aspergillus fumigatus 7544 assessed as inhibition of fungal growth incubated for 48 hrs by CLSI protocol based microbroth dilution method; type: functional
Candida tropicalis [9] = assay: Antifungal activity against Candida tropicalis 2718 assessed as inhibition of fungal growth incubated for 24 hrs by CLSI protocol based microbroth dilution method; type: functional
Pichia kudriavzevii [10] = assay: Antifungal activity against Candida krusei 4946 assessed as inhibition of fungal growth incubated for 24 hrs by CLSI protocol based microbroth dilution method; type: functional
Candida parapsilosis = assay: Antifungal activity against Candida parapsilosis 22019 assessed as inhibition of fungal growth incubated for 24 hrs by CLSI protocol based microbroth dilution method; type: functional; conditions: Lodderomyces parapsilosis
Nakaseomyces glabratus = assay: Antifungal activity against Candida glabrata 537 assessed as inhibition of fungal growth incubated for 48 hrs by CLSI protocol based microbroth dilution method; type: functional
Cell membrane = assay: Disruption of cell membrane integrity in Candida albicans SC5314 assessed as increase in increase in red fluorescence at 0.5 ug/ml incubated for 8 hrs by PI staining based fluorescence microscopic analysis; conditions: dose 0.5 µg/ml
Candida albicans [11] = assay: Antifungal activity against Candida albicans SC5314 assessed as inhibition of fungal growth incubated for 24 hrs by CLSI protocol based microbroth dilution method; type: functional
[12] = target: Lanosterol 14-alpha demethylase (Candida albicans (strain SC5314 / ATCC MYA-2876) (Yeast), UniProt P10613); assay: Inhibition of CYP51 in Candida albicans SC5314 assessed as ergosterol level at 0.5 ug/ml incubated for 8 hrs by GC-MS analysis (reference value: 79.31%); parameters: scale not given: the % may be the effect or the level left; conditions: at 0.5 µg/mL
Erythrocyte = assay: Hemolytic activity in rabbit RBC assessed as hemolysis at 64 ug/ml incubated for 1 hrs by absorbance based assay; type: toxicity, cell-based, Oryctolagus cuniculus; conditions: dose 64 µg/ml
Candida albicans [13] = assay: Antifungal activity against Candida albicans SC5314 infected in ICR mouse model assessed as fungal burden in kidney at 1 mg/kg/day, po pre-infected with fungi for 2 hrs followed by compound administration and measured after 48 hrs (reference value: 3.89 Log10CFU/g); type: functional
Candida tropicalis [14] = assay: Antifungal activity against Candida tropicalis 2718 assessed as inhibition of fungal growth at 32 ug/ml incubated for 24 hrs by plate reader analysis; type: functional, organism-based; conditions: dose 32.0 µg/ml
Candida albicans [15] = assay: Antifungal activity against Candida albicans SC5314 infected in ICR mouse model assessed as median survival time at 1 mg/kg/day, po pre-infected with fungi for 2 hrs followed by compound administration and measured after 48 hrs (reference value: 3.5 days); type: functional
Cytochrome P450 2C9 = Cytochrome P450 2C9 (Homo sapiens, UniProt P11712)
Cytochrome P450 2D6 = Cytochrome P450 2D6 (Homo sapiens, UniProt P10635)
Cytochrome P450 3A4 = Cytochrome P450 3A4 (Homo sapiens, UniProt P08684)
Cytochrome P450 2C19 = Cytochrome P450 2C19 (Homo sapiens, UniProt P33261)
Candida albicans [16] = assay: Antifungal activity against Candida albicans SC5314 assessed as inhibition of fungal growth at 0.0156 ug/ml incubated for 24 hrs by plate reader analysis; type: functional, organism-based; conditions: dose 0.0156 µg/ml
Cytochrome P450 1A2 = target: T1, Cytochrome P450 1A2 (Homo sapiens, UniProt P05177); assay: Inhibition of CYP1A2 in human liver microsomes using phenacetin as substrate in presence of NADPH by LC-MS/MS analysis
T1 sequence (P05177 whole entry): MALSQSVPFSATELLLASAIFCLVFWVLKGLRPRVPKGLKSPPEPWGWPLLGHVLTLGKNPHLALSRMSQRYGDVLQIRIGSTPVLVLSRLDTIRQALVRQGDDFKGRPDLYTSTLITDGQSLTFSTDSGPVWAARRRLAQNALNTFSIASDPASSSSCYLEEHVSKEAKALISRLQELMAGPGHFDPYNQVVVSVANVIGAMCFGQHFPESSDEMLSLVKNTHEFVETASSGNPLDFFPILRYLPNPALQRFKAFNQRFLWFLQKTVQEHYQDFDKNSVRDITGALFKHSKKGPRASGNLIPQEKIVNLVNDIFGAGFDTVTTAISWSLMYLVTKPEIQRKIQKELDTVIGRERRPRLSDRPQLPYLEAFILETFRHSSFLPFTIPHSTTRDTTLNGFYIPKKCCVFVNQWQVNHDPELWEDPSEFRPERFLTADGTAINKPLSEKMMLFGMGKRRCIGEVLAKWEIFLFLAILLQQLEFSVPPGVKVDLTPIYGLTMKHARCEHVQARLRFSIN

Cryptococcus neoformans [17] = assay: Antifungal activity against Cryptococcus neoformans H99 assessed as inhibition of fungal growth at 0.125 ug/ml incubated for 48 hrs by plate reader analysis; type: functional, organism-based; conditions: dose 0.125 µg/ml
Pichia kudriavzevii [18] = assay: Antifungal activity against Candida krusei 4946 assessed as inhibition of fungal growth at 0.125 ug/ml incubated for 24 hrs by plate reader analysis; type: functional, organism-based; conditions: dose 0.125 µg/ml

Chain of Cytochrome P450 2C19 (P33261 whole entry): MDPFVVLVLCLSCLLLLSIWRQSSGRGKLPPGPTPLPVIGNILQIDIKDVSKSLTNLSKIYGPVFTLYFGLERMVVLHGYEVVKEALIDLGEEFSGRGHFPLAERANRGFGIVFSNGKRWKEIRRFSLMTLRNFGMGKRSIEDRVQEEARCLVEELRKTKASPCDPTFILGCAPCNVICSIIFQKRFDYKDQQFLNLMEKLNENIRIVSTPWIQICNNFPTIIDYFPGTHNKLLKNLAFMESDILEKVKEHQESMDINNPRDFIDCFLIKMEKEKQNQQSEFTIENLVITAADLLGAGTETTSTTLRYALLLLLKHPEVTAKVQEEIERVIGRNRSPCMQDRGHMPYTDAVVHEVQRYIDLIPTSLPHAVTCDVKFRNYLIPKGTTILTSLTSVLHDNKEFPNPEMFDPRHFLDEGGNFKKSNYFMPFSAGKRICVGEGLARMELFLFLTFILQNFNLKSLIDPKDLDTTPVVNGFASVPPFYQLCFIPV
Chain of Cytochrome P450 3A4 (P08684 whole entry): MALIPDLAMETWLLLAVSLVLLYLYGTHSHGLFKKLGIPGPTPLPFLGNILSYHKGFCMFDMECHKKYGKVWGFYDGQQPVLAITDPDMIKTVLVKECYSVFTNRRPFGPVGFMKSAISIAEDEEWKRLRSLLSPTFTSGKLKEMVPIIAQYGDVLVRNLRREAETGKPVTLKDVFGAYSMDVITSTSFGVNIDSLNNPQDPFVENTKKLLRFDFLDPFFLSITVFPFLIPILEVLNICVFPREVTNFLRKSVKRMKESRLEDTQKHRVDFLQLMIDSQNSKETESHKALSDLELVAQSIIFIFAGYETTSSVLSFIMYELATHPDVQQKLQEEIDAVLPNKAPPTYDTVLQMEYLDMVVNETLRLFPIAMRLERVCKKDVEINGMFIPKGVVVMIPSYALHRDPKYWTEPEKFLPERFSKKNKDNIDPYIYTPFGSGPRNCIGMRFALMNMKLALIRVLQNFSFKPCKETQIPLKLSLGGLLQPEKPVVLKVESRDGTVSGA
Chain of Cytochrome P450 2D6 (P10635 whole entry): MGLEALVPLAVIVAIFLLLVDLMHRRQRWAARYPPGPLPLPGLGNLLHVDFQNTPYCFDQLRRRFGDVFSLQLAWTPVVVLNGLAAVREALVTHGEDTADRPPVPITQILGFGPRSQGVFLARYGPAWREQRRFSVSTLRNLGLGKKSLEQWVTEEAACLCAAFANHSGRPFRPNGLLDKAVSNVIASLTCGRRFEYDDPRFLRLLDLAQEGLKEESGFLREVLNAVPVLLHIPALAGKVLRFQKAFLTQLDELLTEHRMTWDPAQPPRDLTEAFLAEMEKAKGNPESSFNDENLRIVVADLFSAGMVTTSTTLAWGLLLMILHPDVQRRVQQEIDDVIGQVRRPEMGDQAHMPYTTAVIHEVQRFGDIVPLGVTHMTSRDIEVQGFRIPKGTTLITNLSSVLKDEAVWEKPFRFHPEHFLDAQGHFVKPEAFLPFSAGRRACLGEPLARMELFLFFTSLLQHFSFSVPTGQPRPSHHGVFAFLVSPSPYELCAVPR
Chain of Cytochrome P450 2C9 (P11712 whole entry): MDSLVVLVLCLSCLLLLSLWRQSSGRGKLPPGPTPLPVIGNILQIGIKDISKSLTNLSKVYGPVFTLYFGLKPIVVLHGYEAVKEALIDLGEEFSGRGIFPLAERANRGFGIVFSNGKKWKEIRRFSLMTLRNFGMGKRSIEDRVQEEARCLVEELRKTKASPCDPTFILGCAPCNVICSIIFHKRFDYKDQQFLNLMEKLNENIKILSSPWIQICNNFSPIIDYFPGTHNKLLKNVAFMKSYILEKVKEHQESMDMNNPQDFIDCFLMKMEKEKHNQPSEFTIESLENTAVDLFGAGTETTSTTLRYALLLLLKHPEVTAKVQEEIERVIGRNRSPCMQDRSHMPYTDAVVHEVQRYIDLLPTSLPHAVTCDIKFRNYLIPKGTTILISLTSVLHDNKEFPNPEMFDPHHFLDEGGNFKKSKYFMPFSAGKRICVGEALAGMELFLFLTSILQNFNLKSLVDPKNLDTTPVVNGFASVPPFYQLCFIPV
Chain of Lanosterol 14-alpha demethylase (P10613 whole entry): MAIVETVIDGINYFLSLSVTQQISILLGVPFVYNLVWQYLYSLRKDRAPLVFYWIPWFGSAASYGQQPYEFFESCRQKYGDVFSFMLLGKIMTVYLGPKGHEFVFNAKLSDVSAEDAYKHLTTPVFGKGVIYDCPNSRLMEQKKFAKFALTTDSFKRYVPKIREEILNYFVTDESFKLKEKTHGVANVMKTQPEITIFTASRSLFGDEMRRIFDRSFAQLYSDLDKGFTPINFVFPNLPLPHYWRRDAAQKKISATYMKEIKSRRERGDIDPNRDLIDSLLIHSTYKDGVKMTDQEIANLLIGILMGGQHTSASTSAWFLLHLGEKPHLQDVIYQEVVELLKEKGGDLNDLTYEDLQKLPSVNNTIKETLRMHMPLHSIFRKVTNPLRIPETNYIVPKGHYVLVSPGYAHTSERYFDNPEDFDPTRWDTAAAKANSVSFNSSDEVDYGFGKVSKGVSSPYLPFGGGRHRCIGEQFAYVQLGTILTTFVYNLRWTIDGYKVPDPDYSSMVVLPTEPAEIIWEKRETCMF

Structure (SMILES): C[C@@H]1[C@H](O)[C@@H](C)/C=C/C=C/C=C/C=C/C=C/C=C/C=C/[C@H](O[C@@H]2O[C@H](C)[C@@H](O)[C@H](N)[C@@H]2O)C[C@@H]2O[C@](O)(C[C@@H](O)C[C@@H](O)[C@H](O)CC[C@@H](O)C[C@@H](O)CC(=O)O[C@H]1C)C[C@H](O)[C@H]2C(=O)O [AMPHOTERICIN B]
- MIC50 ([Candida] auris [1]): 4 µg/mL (≈ 4.33 µM)
- MIC50 ([Candida] auris [2]): 4 µg/mL (≈ 4.33 µM)
- MIC50 ([Candida] auris [3]): 2 µg/mL (≈ 2.16 µM)
- hemolysis at 1 h, 4 ug/ml [4]: > 50%
- MIC50 ([Candida] auris [5]): 2 µg/mL (≈ 2.16 µM)
- MIC50 ([Candida] auris [6]): 2 µg/mL (≈ 2.16 µM)
- MIC50 ([Candida] auris [7]): 2 µg/mL (≈ 2.16 µM)

Structure (SMILES): OC(Cn1cncn1)(Cn1cncn1)c1ccc(F)cc1F [FLUCONAZOLE]
- MIC50 ([Candida] auris [1]): > 64 µg/mL
- MIC50 (Cryptococcus neoformans [8]): 8 µg/mL (≈ 26.1 µM)
- MIC50 (Aspergillus fumigatus): > 64 µg/mL
- MIC50 (Candida tropicalis [9]): < 0.125 µg/mL
- MIC50 ([Candida] auris [2]): > 64 µg/mL
- MIC50 (Pichia kudriavzevii [10]): 8 µg/mL (≈ 26.1 µM)
- MIC50 ([Candida] auris [3]): > 64 µg/mL
- MIC50 (Candida parapsilosis): 1 µg/mL (≈ 3.27 µM)
- MIC50 (Nakaseomyces glabratus): 0.5 µg/mL (≈ 1.63 µM)
- Activity (Cell membrane): Active
- MIC50 (Candida albicans [11]): 0.125 µg/mL (≈ 0.408 µM)
- Activity [12]: 10.61%
- Activity (Erythrocyte): Non-Toxic
- MIC50 ([Candida] auris [5]): > 64 µg/mL
- MIC50 ([Candida] auris [6]): > 64 µg/mL
- Activity (Candida albicans [13]): 2.41 log10CFU/g
- MIC50 ([Candida] auris [7]): > 64 µg/mL

Structure (SMILES): C[C@@H](n1cnc2cc(Cl)ccc2c1=O)[C@](O)(Cn1cncn1)c1ccc(F)cc1F [ALBACONAZOLE]
- MIC50 ([Candida] auris [1]): 0.5 µg/mL (≈ 1.16 µM)
- MIC50 (Cryptococcus neoformans [8]): < 0.008 µg/mL
- MIC50 (Aspergillus fumigatus): 0.25 µg/mL (≈ 0.579 µM)
- MIC50 (Candida tropicalis [9]): < 0.008 µg/mL
- Activity (Candida tropicalis [14]): Active
- MST (Candida albicans [15]): 3.5 days
- MIC50 ([Candida] auris [2]): 0.5 µg/mL (≈ 1.16 µM)
- IC50 (Cytochrome P450 2C9): 10.4 µM
- MIC50 (Pichia kudriavzevii [10]): 0.125 µg/mL (≈ 0.289 µM)
- MIC50 ([Candida] auris [3]): 0.25 µg/mL (≈ 0.579 µM)
- IC50 (Cytochrome P450 2D6): 31.7 µM
- MIC50 (Candida parapsilosis): < 0.008 µg/mL
- IC50 (Cytochrome P450 3A4): 0.04 µM
- IC50 (Cytochrome P450 2C19): 13 µM
- MIC50 (Nakaseomyces glabratus): < 0.008 µg/mL
- MIC50 (Candida albicans [11]): < 0.008 µg/mL
- MIC50 ([Candida] auris [5]): 0.5 µg/mL (≈ 1.16 µM)
- Activity (Candida albicans [16]): Active
- IC50 (Cytochrome P450 1A2): 60.3 µM
- MIC50 ([Candida] auris [6]): 0.5 µg/mL (≈ 1.16 µM)
- Activity (Candida albicans [13]): 3.54 log10CFU/g
- MIC50 ([Candida] auris [7]): 0.5 µg/mL (≈ 1.16 µM)

Structure (SMILES): O[C@@](Cn1cnnn1)(c1ccc(F)cc1F)C(F)(F)c1ccc(-c2ccc(OCC(F)(F)F)cc2)cn1 [OTESECONAZOLE]
- MIC50 ([Candida] auris [1]): 8 µg/mL (≈ 15.2 µM)
- MIC50 (Cryptococcus neoformans [8]): < 0.008 µg/mL
- MIC50 (Aspergillus fumigatus): > 64 µg/mL
- MIC50 (Candida tropicalis [9]): < 0.008 µg/mL
- MIC50 ([Candida] auris [2]): 4 µg/mL (≈ 7.58 µM)
- MIC50 (Pichia kudriavzevii [10]): 0.5 µg/mL (≈ 0.948 µM)
- MIC50 ([Candida] auris [3]): 1 µg/mL (≈ 1.9 µM)
- MIC50 (Candida parapsilosis): < 0.008 µg/mL
- MIC50 (Nakaseomyces glabratus): < 0.008 µg/mL
- MIC50 (Candida albicans [11]): < 0.008 µg/mL
- Activity (Cryptococcus neoformans [17]): Active
- MIC50 ([Candida] auris [5]): 8 µg/mL (≈ 15.2 µM)
- Activity (Candida albicans [16]): Active
- MIC50 ([Candida] auris [6]): 8 µg/mL (≈ 15.2 µM)
- MIC50 ([Candida] auris [7]): 4 µg/mL (≈ 7.58 µM)

Structure (SMILES): C[C@@H](n1ccc2cc(Cl)ccc2c1=O)[C@](O)(Cn1cncn1)c1ccc(F)cc1F
- MIC50 ([Candida] auris [1]): 0.5 µg/mL (≈ 1.16 µM)
- MIC50 (Cryptococcus neoformans [8]): < 0.008 µg/mL
- MIC50 (Aspergillus fumigatus): 0.25 µg/mL (≈ 0.58 µM)
- MIC50 (Candida tropicalis [9]): < 0.008 µg/mL
- MIC50 ([Candida] auris [2]): 0.25 µg/mL (≈ 0.58 µM)
- MIC50 (Pichia kudriavzevii [10]): 0.063 µg/mL (≈ 0.146 µM)
- MIC50 ([Candida] auris [3]): 0.25 µg/mL (≈ 0.58 µM)
- MIC50 (Candida parapsilosis): < 0.008 µg/mL
- MIC50 (Nakaseomyces glabratus): < 0.008 µg/mL
- MIC50 (Candida albicans [11]): < 0.008 µg/mL
- Activity (Cryptococcus neoformans [17]): Active
- MIC50 ([Candida] auris [5]): 0.5 µg/mL (≈ 1.16 µM)
- Activity (Candida albicans [16]): Active
- MIC50 ([Candida] auris [6]): 0.25 µg/mL (≈ 0.58 µM)
- MIC50 ([Candida] auris [7]): 0.25 µg/mL (≈ 0.58 µM)
- Activity (Pichia kudriavzevii [18]): Active

Structure (SMILES): C[C@@H](n1ncc2cc(Cl)ccc2c1=O)[C@](O)(Cn1cnnn1)c1ccc(F)cc1F
- MIC50 ([Candida] auris [1]): 32 µg/mL (≈ 73.9 µM)
- MIC50 (Cryptococcus neoformans [8]): 0.063 µg/mL (≈ 0.146 µM)
- MIC50 (Aspergillus fumigatus): 8 µg/mL (≈ 18.5 µM)
- MIC50 (Candida tropicalis [9]): < 0.008 µg/mL
- Activity (Candida tropicalis [14]): Active
- MIC50 ([Candida] auris [2]): 8 µg/mL (≈ 18.5 µM)
- MIC50 (Pichia kudriavzevii [10]): 0.5 µg/mL (≈ 1.16 µM)
- MIC50 ([Candida] auris [3]): 4 µg/mL (≈ 9.24 µM)
- MIC50 (Candida parapsilosis): 0.063 µg/mL (≈ 0.146 µM)
- MIC50 (Nakaseomyces glabratus): < 0.008 µg/mL
- MIC50 (Candida albicans [11]): < 0.008 µg/mL
- MIC50 ([Candida] auris [5]): 16 µg/mL (≈ 37 µM)
- MIC50 ([Candida] auris [6]): 32 µg/mL (≈ 73.9 µM)
- MIC50 ([Candida] auris [7]): 16 µg/mL (≈ 37 µM)

Reference: ChEMBL document CHEMBL5543144, “Discovery of a Novel Potent Tetrazole Antifungal Candidate with High Selectivity and Broad Spectrum” (J Med Chem, 2024)
